The text below walks through data of patent publication US20110263697A1, “Methods of Reducing Oxidative Modification of a Muscle Cell Protein” (STOKELY-VAN CAMP, INC., priority 2010, published 2011).

The experiment has as its system myosin heavy chain (MHC) protein in C2C12 myotubes. In words: Muscle cell assay: oxidative modification of myosin heavy chain protein after electrical pulse stimulation (OXYBLOT). Type of experiment: cell-based, Mouse. How it is done: Mouse C2C12 myoblasts were purchased from American Type Culture Collection (ATCC; Manassas, Va.) and grown to 90% confluence in high glucose Dubecco's Modified Eagle media (DMEM) with 10% fetal bovine serum (FBS). Myoblasts from the purchased lot were grown in T75 flasks and passaged >5 times prior to plating in collagen coated six-well plates for experimentation. To induce myotube differentiation FBS was replaced with 2% horse serum for 5 days. Myoblasts were grown and myotubes were maintained without antibiotics in a 37° C., 5% CO2 incubator. Western blot analysis for myosin heavy chain (MHC) protein indicated expression by day five with maintenance of steady state protein levels through day eight of differentiation. Electrical pulsing was applied to the myotubes using a C-Pace EP Cell Culture Stimulator (IonOptix; Milton, Mass.). Cells were stimulated to visibly and repetitively contract for 90 minutes at a pulse frequency of 0.5 Hz and a pulse duration of 24 ms. Immediately prior to stimulation, day old media was removed and replaced with 5 ml of fresh differentiation media. Myotubes were lysed and proteins were derivatized to 2,4-dinitrophenylhydrazone (DNP; OXYBLOT method). […] Protein bands were visualized and quantified with a Bio-Rad Chemidoc XRS system. […]

As to `Cc1c(C)c2c(c(C)c1O)CCC(C)(C(=O)O)O2` (centres unmarked) [TROLOX, 6-hydroxy-2,5,7,8-tetramethylchroman-2-carboxylic acid], for the setting “1 mM TROLOX pre-treatment approx. 18 h prior and again immediately before EPS, 90 min EPS at 0.5 Hz, 24 ms, five independent experiments, FIG. 4”, the “Oxidative modification of MHC protein reduced (% of EPS alone)” value came out at 42±15%. In addition, the “Oxidative modification of myosin heavy chain protein compared to electrical pulse stimulation alone (FIG. 4)” value (incubated with 1 mM TROLOX and subjected to electrical pulse stimulation) is recorded as “reduced oxidative modification”.
